Data from patent publication US8546421B1, “Oncogenic-RAS-signal dependent lethal compounds” (The Trustees of Columbia University in the City of New York, priority 2007, dated 2013).
In brackets after ≈: the same amount, converted by molar mass.

Key:
[1] = test system: A549, Calu-1, PaCa, and HCT116 cells; assay: Alamar blue assay in KRAS-mutation-harboring cancer cells; assay type: cell-based, human
Description: A549, Calu-1, HCT116 and MIA PaCa-2 cell lines have an oncogenic mutation in the KRAS gene. Compounds which tested positive in the oncogenic HRAS primary screen were also tested for their selectivity against oncogenic KRAS which is more commonly mutated in human cancers.

[2] = test system: MOLT-4; assay: NCI60 anti-cancer screening; settings: for GI50 / CC50: Homo sapiens; for GI50 / GI 100%: MOLT-4; for CC50: MOLT-4, read-out: LC 50%; for GI 100%: Leukemia
[3] = test system: BT-549; assay: NCI60 anti-cancer screening; settings: for GI 100% / GI50: BT-549; for GI 100%: Breast Cancer; for GI50 / CC50: Homo sapiens; for CC50: BT-549, read-out: LC 50%
[4] = test system: SNB-75; assay: NCI60 anti-cancer screening
[5] = test system: HL-60(TB); settings: Leukemia
[6] = test system: SR; assay: NCI60 anti-cancer screening; settings: for GI50 / CC50: Homo sapiens; for CC50: read-out: LC 50%; for GI 100%: Leukemia
[7] = test system: 786-0; assay: NCI60 anti-cancer screening; settings: for GI 100% / GI50: 786-0; for GI 100%: Renal Cancer; for GI50 / CC50: Homo sapiens; for CC50: 786-0, read-out: LC 50%
[8] = test system: BJ-TERT/LT/ST/RAS^V12 cells; assay: Alamar blue growth inhibition in dilution series; assay type: cell-based, human; settings: Homo sapiens, alamar blue
[9] = test system: BJ-TERT/LT/ST/RAS^V12 cells; assay: Counter screening with iron chelators; assay type: cell-based, human; settings: DFOM and three additional iron-binding compounds; 24 hours
Description: Cells were treated with iron chelators by transferring 4 μL of 1 mM deferoxamine mesylate (Calbiochem, cat.#252750), 500 μM compound 1a (Chembridge, cat.#5175092), 1 mM compound 2 (Ryan Scientific, cat.#LT01784723), or 100 μM compound 311 (Chembridge, cat.#5135701) in growth media to the assay plate. Then, 4 μL was transferred from the ‘10× lethal plate’ (described in ‘counter screening with biologically active compounds’) to the assay plate in order to induce cell death. Assay plates were incubated for 24 hours and alamar blue was added to the plates at a final concentration of 10%.

[10] = test system: BJ cell system (BJ-TERT, BJ-TERT/LT/ST, BJ-TERT/LT/ST/RAS^V12, DRD cells); assay: Alamar blue potency and selectivity in the engineered BJ cell system; settings: oncogenic-RAS-expressing vs non-oncogenic-RAS-expressing BJ cells; alamar blue
Description: Empty “step-daughter plates” were filled with 50 μL DMEM, except for columns 3 and 13, where 100 μL of hit compound solution were cherry-picked from daughter plates. After compound transfer, 2-fold dilution series across columns 3 through 12 and columns 13 through 22 was made by transferring 50 μL of compound solution to the next column successively (10-point dilution series), with extensive mixing. Hit-picking and 2-fold dilution series were carried out using Biomek FX Span-8 module (Beckman Coulter). Assay plates were prepared by seeding 1,000 BJ-TERT, BJ-TERT/LT/ST, and BJ-TERT/LT/ST/RAS^V12 cells per well in 36 μL growth medium. Cells in assay plates were treated with compounds from step-daughter plates by transferring 4 μL. The final concentration of the compound was 5.33 μg/mL to 0.01 μg/mL in this 10-point, 2-fold dilution series. Assay plates were returned to the culture incubator and maintained for 48 hours before adding alamar blue.
Fresh daughter plates were made from the mother plate and cherry-picked hits from the first round, 2-fold dilution series experiment as described above. Assay plates were prepared by seeding 1,000 BJ-TERT, BJ-TERT/LT/ST, BJ-TERT/LT/ST/RAS^V12 or BJ-TERT/p53DD/CDK4/cyclinD1/ST/RAS^V12 (DRD) cells per well in 32 μL growth media. Cells in the assay plates were treated with compounds from the step-daughter plate by transferring 8 μL solution. The final concentration of the compound was 10.66 μg/mL to 0.02 μg/mL in a 10-point, 2-fold dilution series manner. Assay plates were returned to the culture incubator and maintained for 48 hours before adding alamar blue.
Cells were seeded in 384-well assay plates, treated with candidate compounds, and incubated in the culture incubator in 40 μL culture volume per well. […] Plates were incubated further for 16 hours to allow reduction of alamar blue, which results in the generation of red fluorescence. The fluorescence intensity was determined using a Victor 3 plate reader (Perkin Elmer) with a 535 nm excitation filter and a 590 nm emission filter.
In the subsequent two-fold dilution series testing, selectivity was calculated as the ratio of GI50 values in BJ-TERT/LT/ST and BJ-TERT/LT/ST/RAS^V12 cells. […] DRD cells are also derived from BJ primary cells and the effects of mutations in both lines should be similar.

[11] = test system: OVCAR-3; assay: cells; settings: Homo sapiens
[12] = test system: MDA-MB-435; assay: NCI60 anti-cancer screening
[13] = test system: MDA-MB-231/ATCC; assay: NCI60 anti-cancer screening
[14] = test system: TK-10; assay: NCI60 anti-cancer screening
[15] = test system: RXF393; assay: NCI60 anti-cancer screening
[16] = test system: LOX IMVI; assay: NCI60 anti-cancer screening
[17] = test system: RPMI-8226; assay: NCI60 anti-cancer screening
[18] = test system: SK-MEL-5; assay: NCI60 anti-cancer screening
[19] = test system: UACC-257; assay: NCI60 anti-cancer screening
[20] = test system: COLO 205; assay: NCI60 anti-cancer screening
[21] = test system: SN12C; assay: NCI60 anti-cancer screening
[22] = test system: MALME-3M; assay: NCI60 anti-cancer screening
[23] = test system: ACHN; assay: NCI60 anti-cancer screening
[24] = test system: KM12; assay: NCI60 anti-cancer screening
[25] = test system: MCF-7; assay: NCI60 anti-cancer screening
[26] = test system: SF-268; assay: NCI60 anti-cancer screening

With COCCOC(=O)C1=C(C)NC2=C(C(=O)CC(c3ccc(Cl)cc3)C2)C1c1ccccc1F (centres unmarked) [Compound 3] the “activity in KRAS-mutation-harboring cancer cells (in words)” value [1] was “less activity”, the GI50 [2] was 8.39 µM and the CC50 [2] was greater than 10 µM. The “GI 100%” value [2] was greater than 10 µM, the “GI 100%” value [3] was greater than 10 µM and the GI50 [3] was 4.28 µM. It also gave a CC50 [3] greater than 10 µM, a GI50 ([4]; Homo sapiens, SNB-75) of 9.61 µM and a CC50 ([4]; Homo sapiens, SNB-75, read-out: LC 50%) greater than 10 µM. For the same molecule, the “GI 100%” value ([4]; SNB-75, CNS Cancer) was greater than 10 µM, the “GI 100%” value [5] was greater than 10 µM and the GI50 [6] was 7.15 µM. For the same molecule, the CC50 [6] was greater than 10 µM, the “GI 100%” value [6] was greater than 10 µM and the “GI 100%” value [7] was greater than 10 µM. It also gave a GI50 [7] of 9.27 µM, a CC50 [7] greater than 10 µM and an IC90 [8] of 10 µg/mL (≈ 21.3 µM). For the same molecule, the “effect of iron chelators on compound activity / induced cell death” value [9] was “significantly inhibited” and the “degree of selectivity against HRAS^G12V” value [10] was 4-8 fold.
With CCc1c(O)c2c(c(O)c1O[C@H]1O[C@@H](COC(C)=O)[C@H](OC(C)=O)[C@@H](CC(C)=O)[C@@H]1OC(C)=O)C(=O)C(O[C@@H]1O[C@H](COC(C)=O)[C@@H](OC(C)=O)[C@H](OC(C)=O)[C@H]1OC(C)=O)=C(O[C@@H]1O[C@H](COC(C)=O)[C@@H](OC(C)=O)[C@H](OC(C)=O)[C@H]1OC(C)=O)C2=O [Compound 6] the “activity in KRAS-mutation-harboring cancer cells (in words)” value [1] was “reasonable potency”, the GI50 ([11]; OVCAR-3) was 3.52 µM and the CC50 ([11]; OVCAR-3, read-out: LC 50%) was greater than 10 µM. For the same molecule, the GI50 ([12]; Homo sapiens, MDA-MB-435) was 2.21 µM, the CC50 ([12]; Homo sapiens, MDA-MB-435, read-out: LC 50%) was 9.07 µM and the “GI 100%” value ([12]; MDA-MB-435, Breast Cancer) was 4.38 µM. For the same molecule, the GI50 ([13]; Homo sapiens, MDA-MB-231) was 1.75 µM, the CC50 ([13]; Homo sapiens, MDA-MB-231, read-out: LC 50%) was 9.52 µM and the “GI 100%” value ([13]; MDA-MB-231/ATCC, Breast Cancer) was 4.09 µM. The GI50 ([14]; Homo sapiens, TK-10) was 2.76 µM, the CC50 ([14]; Homo sapiens, TK-10, read-out: LC 50%) was greater than 10 µM and the “GI 100%” value ([14]; TK-10, Renal Cancer) was greater than 10 µM. For the same molecule, the GI50 [2] was 0.783 µM, the CC50 [2] was greater than 10 µM and the “GI 100%” value [2] was 3.91 µM. The GI50 ([15]; Homo sapiens, RXF 393) was 0.652 µM, the CC50 ([15]; Homo sapiens, RXF 393, read-out: LC 50%) was 6.6 µM and the “GI 100%” value ([15]; RXF393, Renal Cancer) was 2.41 µM. The GI50 ([16]; Homo sapiens) was 1.73 µM, the CC50 ([16]; Homo sapiens, read-out: LC 50%) was 6.25 µM and the “GI 100%” value ([16]; Melanoma) was 3.29 µM. For the same molecule, the “GI 100%” value [3] was 3.27 µM, the GI50 [3] was 1.49 µM and the CC50 [3] was 7.21 µM. The “GI 100%” value [5] was 2.38 µM, the GI50 ([17]; Homo sapiens, RPMI-8226) was 2.37 µM and the CC50 ([17]; Homo sapiens, RPMI-8226, read-out: LC 50%) was greater than 10 µM. For the same molecule, the “GI 100%” value ([17]; RPMI-8226, Leukemia) was 6.77 µM, the GI50 [6] was 2.65 µM and the CC50 [6] was greater than 10 µM. The “GI 100%” value [6] was 8.4 µM, the GI50 ([18]; Homo sapiens, SK-MEL-5) was 5 µM and the CC50 ([18]; Homo sapiens, SK-MEL-5, read-out: LC 50%) was greater than 10 µM. The “GI 100%” value ([18]; SK-MEL-5, Melanoma) was greater than 10 µM, the GI50 ([19]; Homo sapiens, UACC-257) was 2.78 µM and the CC50 ([19]; Homo sapiens, UACC-257, read-out: LC 50%) was greater than 10 µM. For the same molecule, the “GI 100%” value ([19]; UACC-257, Melanoma) was greater than 10 µM, the “GI 100%” value ([20]; COLO 205, Colon Cancer) was 1.26 µM and the GI50 ([20]; Homo sapiens, COLO 205) was 0.232 µM. For the same molecule, the CC50 ([20]; Homo sapiens, COLO 205, read-out: LC 50%) was 4.78 µM, the “GI 100%” value [7] was 5.54 µM and the GI50 [7] was 2.51 µM. It also gave a CC50 [7] greater than 10 µM, a GI50 ([21]; Homo sapiens) of 8.1 µM and a CC50 ([21]; Homo sapiens, read-out: LC 50%) greater than 10 µM. The “GI 100%” value ([21]; Renal Cancer) was greater than 10 µM, the GI50 ([22]; Homo sapiens, Malme-3M) was 0.261 µM and the CC50 ([22]; Homo sapiens, Malme-3M, read-out: LC 50%) was 2.8 µM. For the same molecule, the “GI 100%” value ([22]; MALME-3M, Melanoma) was 0.723 µM, the GI50 ([23]; Homo sapiens) was 8.76 µM and the CC50 ([23]; Homo sapiens, read-out: LC 50%) was greater than 10 µM. The “GI 100%” value ([23]; Renal Cancer) was greater than 10 µM, the IC90 [8] was 2.5 µg/mL (≈ 1.99 µM) and the GI50 ([24]; Homo sapiens, KM12) was 5.2 µM. The CC50 ([24]; Homo sapiens, KM12, read-out: LC 50%) was greater than 10 µM, the “GI 100%” value ([24]; KM12, Colon Cancer) was greater than 10 µM and the GI50 ([25]; Homo sapiens, MCF7) was 1.55 µM. The CC50 ([25]; Homo sapiens, MCF7, read-out: LC 50%) was 9.18 µM, the “GI 100%” value ([25]; MCF-7, Breast Cancer) was 3.78 µM and the GI50 ([26]; Homo sapiens, SF-268) was 2.46 µM. The CC50 ([26]; Homo sapiens, SF-268, read-out: LC 50%) was greater than 10 µM, the “GI 100%” value ([26]; SF-268, CNS Cancer) was 7.71 µM and the “degree of selectivity against HRAS^G12V” value [10] was 4-8 fold.
